Experimental data: PubChem BioAssay (NCI)
Values joined by “and” are separate entries in the source; they are usually repeats but may differ in a detail not shown here. Identical values can stand only once.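 Method: 48-hour compound exposure of cells in 96-well plates, five concentrations, linear interpolation of endpoints. Here, GI50 denotes the concentration required for 50% inhibition of growth. TGI denotes the concentration required for complete inhibition of growth.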

Tests used:
Test in all cases: NCI anticancer screen, dose series, 48 h
HS 578T breast = tested on: HS 578T breast
SF-268 CNS = tested on: SF-268 CNS
SW-620 colon = tested on: SW-620 colon
U251 CNS = tested on: U251 CNS
HCT-116 colon = tested on: HCT-116 colon
HOP-92 NSCLC = tested on: HOP-92 NSCLC
SK-MEL-2 melanoma = tested on: SK-MEL-2 melanoma
SNB-19 CNS = tested on: SNB-19 CNS
SK-MEL-5 melanoma = tested on: SK-MEL-5 melanoma
UACC-257 melanoma = tested on: UACC-257 melanoma

Compound: CN(Cc1cnc2nc(N)nc(N)c2n1)c1ccc(C(=O)NC(CCC(=O)NC(CC(P(=O)(O)O)P(=O)(O)O)C(=O)O)C(=O)O)cc1 (centres undefined)
- TGI (HS 578T breast): > 100 µM
- TGI (SF-268 CNS): > 100 µM
- TGI (SW-620 colon): > 100 µM
- TGI (U251 CNS): > 100 µM
- TGI (HCT-116 colon): > 100 µM
- TGI (HOP-92 NSCLC): > 100 µM
- TGI (SK-MEL-2 melanoma): > 100 µM
- TGI (SNB-19 CNS): > 100 µM
- TGI (SK-MEL-5 melanoma): > 100 µM
- TGI (UACC-257 melanoma): > 100 µM

Compound: C=Cc1nc(C#N)c(N)o1
- TGI (HS 578T breast): > 100 µM
- TGI (SF-268 CNS): > 100 µM
- TGI (SW-620 colon): > 100 µM
- TGI (U251 CNS): > 100 µM
- TGI (HCT-116 colon): > 100 µM
- TGI (HOP-92 NSCLC): > 100 µM
- TGI (SK-MEL-2 melanoma): > 100 µM
- TGI (SNB-19 CNS): > 100 µM
- TGI (SK-MEL-5 melanoma): > 100 µM
- TGI (UACC-257 melanoma): > 100 µM

Compound: N#CC[N+]1(Cc2ccccn2)CCCC1
- TGI (HS 578T breast): > 100 µM
- TGI (SF-268 CNS): > 100 µM
- TGI (SW-620 colon): > 100 µM
- TGI (U251 CNS): > 100 µM
- TGI (HCT-116 colon): > 100 µM
- TGI (HOP-92 NSCLC): > 100 µM
- TGI (SK-MEL-2 melanoma): > 100 µM
- TGI (SNB-19 CNS): > 100 µM
- TGI (SK-MEL-5 melanoma): > 100 µM
- TGI (UACC-257 melanoma): > 100 µM

Compound: CN(C)CC1CCC/C(=C\c2ccc(OC(=O)/C=C/c3ccc(Cl)c(Cl)c3)cc2)C1=O (centres undefined)
- TGI (HS 578T breast): > 85.3 µM
- TGI (SF-268 CNS): 36.1 µM
- TGI (SW-620 colon): 7.86 µM
- TGI (U251 CNS): 27.9 µM
- TGI (HCT-116 colon): 14.5 µM
- TGI (HOP-92 NSCLC): 4.27 µM
- TGI (SK-MEL-2 melanoma): 44.8 µM
- TGI (SNB-19 CNS): 18.6 µM
- TGI (SK-MEL-5 melanoma): 12.2 µM
- TGI (UACC-257 melanoma): 40.4 µM

Compound: COc1ccc([C@]23CCN4COC[C@@H]([C@H]42)C2(CC3)OCC(C)(C)CO2)cc1OC
- TGI (HS 578T breast): > 100 µM
- TGI (SF-268 CNS): > 100 µM
- TGI (SW-620 colon): > 100 µM
- TGI (U251 CNS): > 100 µM
- TGI (HCT-116 colon): > 100 µM
- TGI (HOP-92 NSCLC): > 100 µM
- TGI (SK-MEL-2 melanoma): > 100 µM
- TGI (SNB-19 CNS): > 100 µM
- TGI (SK-MEL-5 melanoma): > 100 µM
- TGI (UACC-257 melanoma): > 100 µM

Compound: O=C(O)CNC(=O)c1ccc2cc(C(=O)N3CC(CCl)c4ccc([N+](=O)[O-])cc43)[nH]c2c1 (centres undefined)
- TGI (HS 578T breast): > 100 µM
- TGI (SF-268 CNS): > 100 µM
- TGI (SW-620 colon): > 100 µM
- TGI (U251 CNS): > 100 µM
- TGI (HCT-116 colon): > 100 µM
- TGI (HOP-92 NSCLC): > 100 µM
- TGI (SK-MEL-2 melanoma): > 100 µM
- TGI (SNB-19 CNS): > 100 µM
- TGI (SK-MEL-5 melanoma): > 100 µM
- TGI (UACC-257 melanoma): > 100 µM

Compound: COc1cccc(C2SC(C)C(=O)N2CCc2cccs2)c1 (centres undefined)
- GI50 (HS 578T breast): 2.56 µM
- TGI (HS 578T breast): 26.8 µM
- GI50 (SF-268 CNS): 2.72 µM
- TGI (SF-268 CNS): 13 µM
- GI50 (SW-620 colon): 3.48 µM
- TGI (SW-620 colon): 15.7 µM
- GI50 (U251 CNS): 3.1 µM
- TGI (U251 CNS): 11.2 µM
- GI50 (HCT-116 colon): 1.89 µM
- TGI (HCT-116 colon): 8.36 µM
- GI50 (HOP-92 NSCLC): 1.16 µM
- TGI (HOP-92 NSCLC): 4.37 µM
- GI50 (SK-MEL-2 melanoma): 2.77 µM
- TGI (SK-MEL-2 melanoma): 11.5 µM
- GI50 (SNB-19 CNS): 2.96 µM
- TGI (SNB-19 CNS): 13.7 µM
- GI50 (SK-MEL-5 melanoma): 1.58 µM
- TGI (SK-MEL-5 melanoma): 2.96 µM
- GI50 (UACC-257 melanoma): 3.17 µM
- TGI (UACC-257 melanoma): 10.3 µM

Compound: Cc1ccc(S(=O)(=O)N/N=C2/CCC(C(C)(C)C)CC2Br)cc1 (centres undefined)
- TGI (HS 578T breast): 47.1 µM
- TGI (SF-268 CNS): > 100 µM
- TGI (SW-620 colon): 53.1 µM
- TGI (U251 CNS): 21.1 µM
- TGI (HCT-116 colon): 51.5 µM
- TGI (HOP-92 NSCLC): 72.3 µM
- TGI (SK-MEL-2 melanoma): 28.1 µM
- TGI (SNB-19 CNS): > 100 µM
- TGI (SK-MEL-5 melanoma): 29.5 µM
- TGI (UACC-257 melanoma): > 100 µM

Compound: CC(=O)NC1(C(=O)N[C@@H](Cc2ccccc2)C(=O)NC2CCCCC2)Cc2ccc3ccccc3c2-c2c(ccc3ccccc23)C1
- TGI (HS 578T breast): > 100 µM
- GI50 (SF-268 CNS): 8.66 µM and 31.3 µM
- TGI (SF-268 CNS): > 100 µM
- TGI (SW-620 colon): > 100 µM
- TGI (U251 CNS): > 100 µM
- TGI (HCT-116 colon): > 100 µM
- TGI (HOP-92 NSCLC): > 100 µM
- TGI (SK-MEL-2 melanoma): > 100 µM
- GI50 (SNB-19 CNS): 11 µM and 28.8 µM
- TGI (SNB-19 CNS): > 100 µM
- GI50 (SK-MEL-5 melanoma): 2.9 µM and 6.71 µM
- TGI (SK-MEL-5 melanoma): 12.1 µM and 23.7 µM
- GI50 (UACC-257 melanoma): 2 µM and 5.32 µM
- TGI (UACC-257 melanoma): 10.8 µM and 75.5 µM

Compound: COc1c2ccsc2c(OC)c2ccsc12
- TGI (HS 578T breast): > 100 µM
- TGI (SF-268 CNS): > 100 µM
- TGI (SW-620 colon): > 100 µM
- TGI (U251 CNS): > 100 µM
- TGI (HCT-116 colon): > 100 µM
- TGI (HOP-92 NSCLC): > 100 µM
- TGI (SK-MEL-2 melanoma): > 100 µM
- TGI (SNB-19 CNS): > 100 µM
- TGI (SK-MEL-5 melanoma): > 100 µM
- TGI (UACC-257 melanoma): > 100 µM

Compound: COCC12CCC(OC)C34C5CC6(O)C(OC)CC(OC(C)=O)(C5C6OC(=O)c5ccccc5)C(C(OC)C13)C4N(C)C2 (centres undefined)
- TGI (HS 578T breast): > 100 µM
- TGI (SF-268 CNS): > 100 µM
- TGI (SW-620 colon): > 100 µM
- TGI (U251 CNS): > 100 µM
- TGI (HCT-116 colon): > 100 µM
- TGI (HOP-92 NSCLC): > 100 µM
- TGI (SK-MEL-2 melanoma): > 100 µM
- TGI (SNB-19 CNS): > 100 µM
- TGI (SK-MEL-5 melanoma): > 100 µM
- TGI (UACC-257 melanoma): > 100 µM

Compound: COc1ccc(C2SCC(=O)N2NC(=O)C(C)Oc2ccccc2C)cc1 (centres undefined)
- TGI (HS 578T breast): > 100 µM
- TGI (SF-268 CNS): > 100 µM
- TGI (SW-620 colon): > 100 µM
- TGI (U251 CNS): > 100 µM
- TGI (HCT-116 colon): > 100 µM
- TGI (HOP-92 NSCLC): > 100 µM
- TGI (SK-MEL-2 melanoma): > 100 µM
- TGI (SNB-19 CNS): > 100 µM
- TGI (SK-MEL-5 melanoma): > 100 µM
- TGI (UACC-257 melanoma): > 100 µM

Compound: CC12ON(P(=O)(c3ccccc3)c3ccccc3)C(C)(c3ccccc31)c1ccccc12
- TGI (HS 578T breast): > 100 µM
- TGI (SF-268 CNS): > 100 µM
- TGI (SW-620 colon): > 100 µM
- TGI (U251 CNS): > 100 µM
- TGI (HCT-116 colon): > 100 µM
- TGI (HOP-92 NSCLC): > 100 µM
- TGI (SK-MEL-2 melanoma): > 100 µM
- TGI (SNB-19 CNS): > 100 µM
- TGI (SK-MEL-5 melanoma): > 100 µM
- TGI (UACC-257 melanoma): > 100 µM

Compound: COc1cc(CCN(C)C)cc(OC)c1OC
- TGI (HS 578T breast): > 100 µM
- TGI (SF-268 CNS): > 100 µM
- TGI (SW-620 colon): > 100 µM
- TGI (U251 CNS): > 100 µM
- TGI (HCT-116 colon): > 100 µM
- TGI (HOP-92 NSCLC): > 100 µM
- TGI (SK-MEL-2 melanoma): > 100 µM
- TGI (SNB-19 CNS): > 100 µM
- TGI (SK-MEL-5 melanoma): > 100 µM
- TGI (UACC-257 melanoma): > 100 µM

Compound: COc1cc(OC2OC(COC(=O)c3cc(O)c(O)c(O)c3)C(O)C(O)C2O)ccc1O (centres undefined)
- TGI (HS 578T breast): > 100 µM
- TGI (SF-268 CNS): > 100 µM
- TGI (SW-620 colon): > 100 µM
- TGI (U251 CNS): > 100 µM
- TGI (HCT-116 colon): > 100 µM
- TGI (HOP-92 NSCLC): > 100 µM
- TGI (SK-MEL-2 melanoma): > 100 µM
- TGI (SNB-19 CNS): > 100 µM
- TGI (SK-MEL-5 melanoma): > 100 µM
- TGI (UACC-257 melanoma): > 100 µM

Compound: CCOC(=O)C(=O)CC(=O)C1=C(c2ccccc2OC)CC(c2cccs2)=CC1=O
- TGI (HS 578T breast): > 100 µM
- TGI (SF-268 CNS): > 100 µM
- TGI (SW-620 colon): > 100 µM
- TGI (U251 CNS): > 100 µM
- TGI (HCT-116 colon): > 100 µM
- TGI (HOP-92 NSCLC): > 100 µM
- TGI (SK-MEL-2 melanoma): > 100 µM
- TGI (SNB-19 CNS): > 100 µM
- TGI (SK-MEL-5 melanoma): > 100 µM
- TGI (UACC-257 melanoma): > 100 µM
